Assay [1] addresses Serine/threonine-protein kinase SIK3 (Homo sapiens) (UniProt Q9Y2K2). As to the kind of experiment: Selectivity interaction (LanthaScreen Eu Kinase Binding Assay) EUB0001632a SIK3. As to conditions: at 10 µM.
For assay [2], the target named is Calcium/calmodulin-dependent protein kinase type II subunit beta (Homo sapiens) (UniProt Q13554). The assay can be described thus: Selectivity interaction (Ambit KINOMEscan and KiNATiv profiling in Jurkat cells) EUB0000090b CAMK2B. The format is cell-based. The conditions noted are these: at 1 µM.
In assay [3] the target is T1, Mitogen-activated protein kinase kinase kinase kinase 2 (Homo sapiens) (UniProt Q12851).
T1 sequence (whole entry): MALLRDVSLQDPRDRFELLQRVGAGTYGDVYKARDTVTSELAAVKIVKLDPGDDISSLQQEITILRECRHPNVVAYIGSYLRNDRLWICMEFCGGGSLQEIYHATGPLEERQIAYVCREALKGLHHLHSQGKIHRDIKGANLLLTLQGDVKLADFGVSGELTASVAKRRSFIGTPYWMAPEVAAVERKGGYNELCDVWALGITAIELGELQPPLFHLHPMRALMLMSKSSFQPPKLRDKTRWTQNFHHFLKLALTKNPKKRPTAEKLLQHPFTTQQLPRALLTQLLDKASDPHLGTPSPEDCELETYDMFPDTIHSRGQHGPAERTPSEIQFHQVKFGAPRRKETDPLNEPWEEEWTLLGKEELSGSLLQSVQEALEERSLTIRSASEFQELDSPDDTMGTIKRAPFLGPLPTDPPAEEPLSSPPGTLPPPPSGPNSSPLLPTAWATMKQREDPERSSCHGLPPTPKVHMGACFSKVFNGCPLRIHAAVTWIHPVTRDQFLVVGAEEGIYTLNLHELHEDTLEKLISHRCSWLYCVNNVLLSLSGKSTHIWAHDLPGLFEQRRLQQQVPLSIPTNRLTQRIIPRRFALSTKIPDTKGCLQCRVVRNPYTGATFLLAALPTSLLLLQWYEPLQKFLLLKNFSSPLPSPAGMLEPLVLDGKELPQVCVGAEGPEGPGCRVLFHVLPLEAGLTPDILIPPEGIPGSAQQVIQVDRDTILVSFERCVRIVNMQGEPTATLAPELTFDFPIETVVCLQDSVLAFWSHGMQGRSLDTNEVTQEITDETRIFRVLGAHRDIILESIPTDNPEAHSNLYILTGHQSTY
The assay can be described thus: Selectivity interaction (KinomeScan (DiscoverX)) EUB0000607a MAP4K2. The conditions noted are these: at 10 µM.

The target of assay [4] is T2, Bone morphogenetic protein receptor type-2 (Homo sapiens) (UniProt Q13873).
T2 sequence (whole entry): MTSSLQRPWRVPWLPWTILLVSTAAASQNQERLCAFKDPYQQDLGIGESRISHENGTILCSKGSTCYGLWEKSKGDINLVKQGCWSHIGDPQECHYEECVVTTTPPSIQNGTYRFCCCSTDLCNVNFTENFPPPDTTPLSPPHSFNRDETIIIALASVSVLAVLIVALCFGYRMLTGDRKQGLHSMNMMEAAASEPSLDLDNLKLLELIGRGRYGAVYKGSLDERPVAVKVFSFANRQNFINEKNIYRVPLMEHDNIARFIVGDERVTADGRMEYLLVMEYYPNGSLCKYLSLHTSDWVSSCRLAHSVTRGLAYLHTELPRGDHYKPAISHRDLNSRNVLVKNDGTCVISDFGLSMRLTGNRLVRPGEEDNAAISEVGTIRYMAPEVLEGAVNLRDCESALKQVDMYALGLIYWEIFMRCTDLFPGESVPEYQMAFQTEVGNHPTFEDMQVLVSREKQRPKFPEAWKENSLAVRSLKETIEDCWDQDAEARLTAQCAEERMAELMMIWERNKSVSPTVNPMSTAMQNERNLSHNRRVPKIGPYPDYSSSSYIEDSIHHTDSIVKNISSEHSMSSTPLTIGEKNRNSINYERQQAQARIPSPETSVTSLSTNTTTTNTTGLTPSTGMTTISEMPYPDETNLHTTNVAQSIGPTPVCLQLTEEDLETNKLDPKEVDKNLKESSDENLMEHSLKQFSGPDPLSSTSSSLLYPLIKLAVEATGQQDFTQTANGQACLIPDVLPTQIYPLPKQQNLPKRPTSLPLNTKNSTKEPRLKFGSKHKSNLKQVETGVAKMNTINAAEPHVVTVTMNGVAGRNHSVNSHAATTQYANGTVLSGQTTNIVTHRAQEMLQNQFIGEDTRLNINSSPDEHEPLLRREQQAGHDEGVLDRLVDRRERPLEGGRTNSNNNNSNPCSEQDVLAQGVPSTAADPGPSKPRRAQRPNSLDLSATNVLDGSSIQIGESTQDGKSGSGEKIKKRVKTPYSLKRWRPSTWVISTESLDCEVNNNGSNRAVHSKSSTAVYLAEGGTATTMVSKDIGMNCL
The assay can be described thus: Selectivity interaction (KinomeScan (DiscoverX)) EUB0001619a BMPR2. The conditions noted are these: at 1 µM.

The target in assay [5] is Casein kinase I isoform delta (Homo sapiens, UniProt P48730). As to the kind of experiment: Selectivity interaction (Kinase panel (literature)) EUB0001199aCl CSNK1D. The conditions noted are these: at 1 µM.
Assay [6] addresses T3, Dual specificity mitogen-activated protein kinase kinase 6 (Homo sapiens) (UniProt P52564).
T3 sequence (whole entry): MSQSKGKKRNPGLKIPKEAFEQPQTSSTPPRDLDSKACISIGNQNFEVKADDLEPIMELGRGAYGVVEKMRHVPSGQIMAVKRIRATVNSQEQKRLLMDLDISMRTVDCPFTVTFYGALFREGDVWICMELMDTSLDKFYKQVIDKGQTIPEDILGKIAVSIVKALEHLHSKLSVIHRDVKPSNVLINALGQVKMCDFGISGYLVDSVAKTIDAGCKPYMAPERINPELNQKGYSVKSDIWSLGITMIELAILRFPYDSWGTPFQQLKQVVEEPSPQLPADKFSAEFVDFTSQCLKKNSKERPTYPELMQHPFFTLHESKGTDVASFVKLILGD
The assay can be described thus: Selectivity interaction (KinomeScan (DiscoverX)) EUB0000695a MAP2K6. As to conditions: at 100 nM.

For assay [7], the target named is LIM domain kinase 2 (Homo sapiens) (UniProt P53671). The assay can be described thus: Selectivity interaction (KinomeScan (DiscoverX)) EUB0000695a LIMK2. The conditions noted are these: at 100 nM.
Assay [8] deals with Homeodomain-interacting protein kinase 1 (Homo sapiens, UniProt Q86Z02). As to the kind of experiment: Selectivity interaction (KinomeScan (DiscoverX)) EUB0000092b HIPK1. As to conditions: at 10 µM.
Sequence of Homeodomain-interacting protein kinase 1 (Q86Z02 whole entry, looked up): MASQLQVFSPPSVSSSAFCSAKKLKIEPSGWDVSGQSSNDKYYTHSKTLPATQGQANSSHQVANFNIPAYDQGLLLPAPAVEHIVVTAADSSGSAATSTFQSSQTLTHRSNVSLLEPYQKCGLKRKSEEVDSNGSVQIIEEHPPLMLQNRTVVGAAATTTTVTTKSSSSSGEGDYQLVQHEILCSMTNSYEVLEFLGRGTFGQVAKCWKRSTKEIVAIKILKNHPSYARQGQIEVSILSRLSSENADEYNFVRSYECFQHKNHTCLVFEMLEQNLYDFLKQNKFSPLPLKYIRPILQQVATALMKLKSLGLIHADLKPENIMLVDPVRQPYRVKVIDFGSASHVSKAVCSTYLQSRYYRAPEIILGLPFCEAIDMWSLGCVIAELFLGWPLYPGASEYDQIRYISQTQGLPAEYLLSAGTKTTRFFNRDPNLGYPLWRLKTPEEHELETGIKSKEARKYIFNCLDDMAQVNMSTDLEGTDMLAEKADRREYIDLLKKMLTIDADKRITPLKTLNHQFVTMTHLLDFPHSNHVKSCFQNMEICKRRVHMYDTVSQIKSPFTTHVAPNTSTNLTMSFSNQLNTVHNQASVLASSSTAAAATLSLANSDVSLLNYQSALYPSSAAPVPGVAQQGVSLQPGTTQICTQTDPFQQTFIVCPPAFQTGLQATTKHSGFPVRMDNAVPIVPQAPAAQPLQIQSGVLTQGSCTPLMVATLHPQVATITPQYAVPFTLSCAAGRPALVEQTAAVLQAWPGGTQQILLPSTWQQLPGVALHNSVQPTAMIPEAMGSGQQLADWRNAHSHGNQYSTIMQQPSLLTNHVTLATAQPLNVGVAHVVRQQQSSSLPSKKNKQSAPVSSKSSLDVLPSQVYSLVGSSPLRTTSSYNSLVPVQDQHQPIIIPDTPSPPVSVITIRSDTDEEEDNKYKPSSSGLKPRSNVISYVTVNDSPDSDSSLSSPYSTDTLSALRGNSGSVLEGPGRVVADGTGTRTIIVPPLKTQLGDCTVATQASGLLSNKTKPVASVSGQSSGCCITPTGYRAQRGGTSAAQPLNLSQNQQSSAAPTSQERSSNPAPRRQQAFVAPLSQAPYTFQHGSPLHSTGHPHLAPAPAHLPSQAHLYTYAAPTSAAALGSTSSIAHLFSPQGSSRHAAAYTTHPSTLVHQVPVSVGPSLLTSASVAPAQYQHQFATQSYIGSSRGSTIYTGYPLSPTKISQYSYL

Sequence of Calcium/calmodulin-dependent protein kinase type II subunit beta (Homo sapiens) (Q13554 whole entry): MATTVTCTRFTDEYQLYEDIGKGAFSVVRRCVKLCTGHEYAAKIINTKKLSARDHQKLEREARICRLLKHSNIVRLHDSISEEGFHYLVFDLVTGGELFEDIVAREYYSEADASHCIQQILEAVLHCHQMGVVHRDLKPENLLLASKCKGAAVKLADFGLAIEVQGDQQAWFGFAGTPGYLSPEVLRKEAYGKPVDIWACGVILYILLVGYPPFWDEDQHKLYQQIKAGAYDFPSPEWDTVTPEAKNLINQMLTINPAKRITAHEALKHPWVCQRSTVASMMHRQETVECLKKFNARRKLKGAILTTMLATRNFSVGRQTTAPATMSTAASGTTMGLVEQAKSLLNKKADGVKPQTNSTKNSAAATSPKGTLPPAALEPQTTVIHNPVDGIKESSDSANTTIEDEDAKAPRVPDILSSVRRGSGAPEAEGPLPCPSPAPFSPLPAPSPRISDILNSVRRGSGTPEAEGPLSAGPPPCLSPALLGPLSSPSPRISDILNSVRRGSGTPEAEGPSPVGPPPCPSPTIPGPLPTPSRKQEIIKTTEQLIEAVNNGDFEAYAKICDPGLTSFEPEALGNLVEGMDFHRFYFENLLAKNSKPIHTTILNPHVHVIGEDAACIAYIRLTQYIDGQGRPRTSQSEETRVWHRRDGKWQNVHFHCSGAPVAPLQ
Sequence of LIM domain kinase 2 (Homo sapiens) (P53671 whole entry, looked up, the tested form may be a part): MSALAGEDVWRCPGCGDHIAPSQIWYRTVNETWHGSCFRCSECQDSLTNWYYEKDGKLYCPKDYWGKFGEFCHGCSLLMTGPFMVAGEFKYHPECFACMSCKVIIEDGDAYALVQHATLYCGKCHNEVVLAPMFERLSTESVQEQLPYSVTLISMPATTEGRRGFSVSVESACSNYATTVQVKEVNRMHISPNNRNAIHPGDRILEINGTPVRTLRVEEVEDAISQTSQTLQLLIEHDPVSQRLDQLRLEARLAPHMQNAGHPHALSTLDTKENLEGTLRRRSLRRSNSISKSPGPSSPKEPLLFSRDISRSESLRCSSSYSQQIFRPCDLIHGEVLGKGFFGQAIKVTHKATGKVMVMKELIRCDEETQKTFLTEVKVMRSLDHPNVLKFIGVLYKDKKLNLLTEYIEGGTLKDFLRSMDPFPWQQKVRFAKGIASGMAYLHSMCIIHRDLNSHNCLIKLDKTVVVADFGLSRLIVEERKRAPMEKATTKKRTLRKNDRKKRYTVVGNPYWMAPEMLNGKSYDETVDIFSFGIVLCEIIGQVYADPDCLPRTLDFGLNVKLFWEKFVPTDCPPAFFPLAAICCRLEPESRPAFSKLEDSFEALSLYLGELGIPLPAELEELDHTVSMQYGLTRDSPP
Sequence of Serine/threonine-protein kinase SIK3 (Homo sapiens) (Q9Y2K2 whole entry, looked up): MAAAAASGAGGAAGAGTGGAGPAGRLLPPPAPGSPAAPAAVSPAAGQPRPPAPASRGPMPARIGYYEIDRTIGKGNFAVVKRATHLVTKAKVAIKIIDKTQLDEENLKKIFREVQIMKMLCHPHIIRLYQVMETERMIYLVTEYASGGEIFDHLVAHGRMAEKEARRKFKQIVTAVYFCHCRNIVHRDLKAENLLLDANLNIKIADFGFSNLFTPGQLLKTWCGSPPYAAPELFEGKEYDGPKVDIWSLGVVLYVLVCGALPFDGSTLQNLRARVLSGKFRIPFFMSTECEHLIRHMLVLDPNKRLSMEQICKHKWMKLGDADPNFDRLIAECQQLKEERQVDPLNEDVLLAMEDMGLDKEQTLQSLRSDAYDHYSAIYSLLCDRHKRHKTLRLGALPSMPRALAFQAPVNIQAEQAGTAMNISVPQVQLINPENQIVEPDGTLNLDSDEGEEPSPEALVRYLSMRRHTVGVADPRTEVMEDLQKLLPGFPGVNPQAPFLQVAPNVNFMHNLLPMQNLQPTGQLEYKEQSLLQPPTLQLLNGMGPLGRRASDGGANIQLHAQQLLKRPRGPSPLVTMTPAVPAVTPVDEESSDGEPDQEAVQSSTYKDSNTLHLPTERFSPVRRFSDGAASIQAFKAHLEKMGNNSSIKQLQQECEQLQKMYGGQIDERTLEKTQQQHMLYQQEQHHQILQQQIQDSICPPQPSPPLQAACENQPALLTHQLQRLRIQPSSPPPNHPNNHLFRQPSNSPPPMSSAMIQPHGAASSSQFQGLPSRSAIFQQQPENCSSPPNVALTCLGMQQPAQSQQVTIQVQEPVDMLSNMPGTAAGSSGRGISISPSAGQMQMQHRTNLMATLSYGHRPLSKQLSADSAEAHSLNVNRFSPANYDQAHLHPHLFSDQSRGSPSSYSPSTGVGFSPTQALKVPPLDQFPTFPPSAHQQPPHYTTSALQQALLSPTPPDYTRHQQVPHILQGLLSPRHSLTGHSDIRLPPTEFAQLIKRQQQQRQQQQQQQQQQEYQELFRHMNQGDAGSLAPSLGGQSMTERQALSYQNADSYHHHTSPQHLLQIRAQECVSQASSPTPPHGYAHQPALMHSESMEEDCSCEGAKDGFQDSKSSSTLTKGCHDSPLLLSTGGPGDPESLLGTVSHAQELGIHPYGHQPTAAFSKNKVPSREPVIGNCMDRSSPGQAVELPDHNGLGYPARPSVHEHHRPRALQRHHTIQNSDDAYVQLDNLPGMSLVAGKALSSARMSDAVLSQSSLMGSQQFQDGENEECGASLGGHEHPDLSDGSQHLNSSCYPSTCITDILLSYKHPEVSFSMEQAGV
Sequence of Casein kinase I isoform delta (P48730 whole entry, looked up, canonical isoform): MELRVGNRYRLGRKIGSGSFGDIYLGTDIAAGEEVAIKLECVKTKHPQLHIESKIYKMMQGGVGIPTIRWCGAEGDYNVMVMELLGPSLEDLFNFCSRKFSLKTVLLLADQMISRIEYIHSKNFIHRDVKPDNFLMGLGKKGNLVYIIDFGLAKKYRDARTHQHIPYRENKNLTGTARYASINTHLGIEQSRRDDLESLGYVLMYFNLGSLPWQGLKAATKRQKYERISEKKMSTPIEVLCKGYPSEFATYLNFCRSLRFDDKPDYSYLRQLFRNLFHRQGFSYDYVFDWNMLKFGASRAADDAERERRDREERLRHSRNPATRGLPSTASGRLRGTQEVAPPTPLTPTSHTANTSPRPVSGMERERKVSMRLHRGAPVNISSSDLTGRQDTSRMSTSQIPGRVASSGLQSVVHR

In assay [1], `Cn1cc(-n2cnc3c(NCc4nc5cc(Cl)c(Cl)cc5[nH]4)nc(N4CCOCC4)nc32)cn1` displayed a % of inhibition of 12.2%.

For the compound `CN(C)C/C=C/C(=O)Nc1ccc(C(=O)N2CCCC(Nc3ncc(Cl)c(-c4c[nH]c5ccccc45)n3)C2)cc1` (stereo not drawn), in assay [2], the % of control was determined as 94%. In assay [3], `CNC(=O)Nc1ccc(-c2nc(N3CC4CCC(C3)O4)c3cnn(C4CCC5(CC4)OCCO5)c3n2)cc1` displayed a % of control of 100%.

On to `N#Cc1cccc(-c2c[nH]c3ncnc(N4CCOCC4)c23)c1`, for which the % of control in assay [4] amounted to 80%.

As for `CN1Cc2nccc(-c3cn(C)nc3-c3ccc(F)cc3)c2C1=O`, the % of inhibition in assay [5] was found to be 94%. As for `Cc1cc(F)c(C(=O)Nc2cccc(-c3nncn3C(C)C)n2)cc1-n1cnc(C2CC2)c1`, the % of control in assay [6] was determined as 100%; in assay [7] it was 89%. Compound `CCC(=O)N1CCN(c2ccc(-n3c(=O)ccc4cnc5ccc(-c6cnc7ccccc7c6)cc5c43)cc2C(F)(F)F)CC1` showed a % of control in assay [8] of 63%.

The record behind these values is ChEMBL document CHEMBL5465560, “Selectivity Literature for EUbOPEN Chemogenomic Library” (2024).
